{"source": "paper PMC5224920", "about": "“Assessing the mechanism and therapeutic potential of modulators of the human Mediator complex-associated protein kinases” (eLife, 2016)", "system": "12 single or co-culture in vitro tissue models of primary cells", "test": "Culture/co-culture cell model panel, extracellular biomarkers (DiscoveRx); for CCL2/MCP-1: reference of the scale not given here; for CD38: reference of the scale not given here; for CD40: reference of the scale not given here; for CD69: reference of the scale not given here; for CXCL8/IL-8: reference of the scale not given here; for CXCL9/MIG: reference of the scale not given here; for IL-1alpha: reference of the scale not given here; for PBMC Cytotoxicity: reference of the scale not given here; for SRB: reference of the scale not given here", "type": "cell-based, human"}
{"smiles": "Cn1ncc2cc(-c3cnc(N)c(Cl)c3N3CCC4(CCNC4=O)CC3)ccc21", "note": "[CMPD 3]", "values": [{"measurement": "Collagen IV", "setting": "/TH2, 1.00E2 nM", "value": 0.005}, {"measurement": "PBMC Cytotoxicity", "setting": "/TH2, 1.00E2 nM", "value": -0.011}, {"measurement": "SRB", "setting": "/TH2, 1.00E2 nM", "value": -0.080}, {"measurement": "sIL-17A", "setting": "/TH2, 1.00E2 nM", "value": 0.189}, {"measurement": "sIL-17F", "setting": "/TH2, 1.00E2 nM", "value": 0.137}, {"measurement": "CCL2/MCP-1", "setting": "/TH2, 1.00E3 nM", "value": -0.046}, {"measurement": "CCL26/Eotaxin-3", "setting": "/TH2, 1.00E3 nM", "value": -0.134}, {"measurement": "CD38", "setting": "/TH2, 1.00E3 nM", "value": -0.012}, {"measurement": "CD40", "setting": "/TH2, 1.00E3 nM", "value": -0.080}, {"measurement": "CD69", "setting": "/TH2, 1.00E3 nM", "value": -0.021}, {"measurement": "CD87/uPAR", "setting": "/TH2, 1.00E3 nM", "value": -0.141}, {"measurement": "CD106/VCAM-1", "setting": "/TH2, 1.00E3 nM", "value": 0.028}, {"measurement": "CXCL8/IL-8", "setting": "/TH2, 1.00E3 nM", "value": -0.057}, {"measurement": "CXCL9/MIG", "setting": "/TH2, 1.00E3 nM", "value": 0.006}, {"measurement": "Collagen IV", "setting": "/TH2, 1.00E3 nM", "value": 0.010}, {"measurement": "PBMC Cytotoxicity", "setting": "/TH2, 1.00E3 nM", "value": -0.023}, {"measurement": "SRB", "setting": "/TH2, 1.00E3 nM", "value": -0.067}, {"measurement": "sIL-17A", "setting": "/TH2, 1.00E3 nM", "value": 0.134}, {"measurement": "sIL-17F", "setting": "/TH2, 1.00E3 nM", "value": -0.079}, {"measurement": "CCL2/MCP-1", "setting": "/TH2, 1.00E4 nM", "value": -0.053}, {"measurement": "CCL26/Eotaxin-3", "setting": "/TH2, 1.00E4 nM", "value": -0.136}, {"measurement": "CD38", "setting": "/TH2, 1.00E4 nM", "value": -0.016}, {"measurement": "CD40", "setting": "/TH2, 1.00E4 nM", "value": -0.061}, {"measurement": "CD69", "setting": "/TH2, 1.00E4 nM", "value": -0.044}, {"measurement": "CD87/uPAR", "setting": "/TH2, 1.00E4 nM", "value": -0.146}, {"measurement": "CD106/VCAM-1", "setting": "/TH2, 1.00E4 nM", "value": 0.003}, {"measurement": "CXCL8/IL-8", "setting": "/TH2, 1.00E4 nM", "value": -0.053}, {"measurement": "CXCL9/MIG", "setting": "/TH2, 1.00E4 nM", "value": 0.006}, {"measurement": "Collagen IV", "setting": "/TH2, 1.00E4 nM", "value": 0.012}, {"measurement": "PBMC Cytotoxicity", "setting": "/TH2, 1.00E4 nM", "value": -0.036}, {"measurement": "SRB", "setting": "/TH2, 1.00E4 nM", "value": -0.126}, {"measurement": "sIL-17A", "setting": "/TH2, 1.00E4 nM", "value": 0.054}, {"measurement": "sIL-17F", "setting": "/TH2, 1.00E4 nM", "value": -0.082}, {"measurement": "CCL26/Eotaxin-3", "setting": "BENo, 1.00E0 nM", "value": 0.067}, {"measurement": "CD54/ICAM-1", "setting": "BENo, 1.00E0 nM", "value": 0.017}, {"measurement": "CD87/uPAR", "setting": "BENo, 1.00E0 nM", "value": 0.077}, {"measurement": "CXCL8/IL-8", "setting": "BENo, 1.00E0 nM", "value": 0.016}, {"measurement": "CXCL9/MIG", "setting": "BENo, 1.00E0 nM", "value": 0.068}, {"measurement": "CXCL10/IP-10", "setting": "BENo, 1.00E0 nM", "value": 0.115}, {"measurement": "CXCL11/I-TAC", "setting": "BENo, 1.00E0 nM", "value": 0.039}, {"measurement": "EGFR", "setting": "BENo, 1.00E0 nM", "value": 0.00071}, {"measurement": "HLA-DR", "setting": "BENo, 1.00E0 nM", "value": 0.048}, {"measurement": "IL-1alpha", "setting": "BENo, 1.00E0 nM", "value": 0.048}, {"measurement": "Keratin 8/18", "setting": "BENo, 1.00E0 nM", "value": 0.051}, {"measurement": "MMP-1", "setting": "BENo, 1.00E0 nM", "value": 0.028}, {"measurement": "MMP-9", "setting": "BENo, 1.00E0 nM", "value": 0.043}, {"measurement": "PAI-I", "setting": "BENo, 1.00E0 nM", "value": 0.010}, {"measurement": "SRB", "setting": "BENo, 1.00E0 nM", "value": 0.002}, {"measurement": "tPA", "setting": "BENo, 1.00E0 nM", "value": 0.014}, {"measurement": "uPA", "setting": "BENo, 1.00E0 nM", "value": 0.036}, {"measurement": "CCL26/Eotaxin-3", "setting": "BENo, 1.00E1 nM", "value": -0.035}, {"measurement": "CD54/ICAM-1", "setting": "BENo, 1.00E1 nM", "value": -0.015}, {"measurement": "CD87/uPAR", "setting": "BENo, 1.00E1 nM", "value": 0.086}, {"measurement": "CXCL8/IL-8", "setting": "BENo, 1.00E1 nM", "value": -0.015}, {"measurement": "CXCL9/MIG", "setting": "BENo, 1.00E1 nM", "value": 0.025}, {"measurement": "CXCL10/IP-10", "setting": "BENo, 1.00E1 nM", "value": 0.020}, {"measurement": "CXCL11/I-TAC", "setting": "BENo, 1.00E1 nM", "value": 0.032}, {"measurement": "EGFR", "setting": "BENo, 1.00E1 nM", "value": -0.005}, {"measurement": "HLA-DR", "setting": "BENo, 1.00E1 nM", "value": 0.084}, {"measurement": "IL-1alpha", "setting": "BENo, 1.00E1 nM", "value": 0.021}, {"measurement": "Keratin 8/18", "setting": "BENo, 1.00E1 nM", "value": 0.032}, {"measurement": "MMP-1", "setting": "BENo, 1.00E1 nM", "value": 0.022}, {"measurement": "MMP-9", "setting": "BENo, 1.00E1 nM", "value": 0.026}, {"measurement": "PAI-I", "setting": "BENo, 1.00E1 nM", "value": 0.003}, {"measurement": "SRB", "setting": "BENo, 1.00E1 nM", "value": 0.000675}, {"measurement": "tPA", "setting": "BENo, 1.00E1 nM", "value": -0.00178}, {"measurement": "uPA", "setting": "BENo, 1.00E1 nM", "value": 0.034}, {"measurement": "CCL26/Eotaxin-3", "setting": "BENo, 1.00E2 nM", "value": 0.029}, {"measurement": "CD54/ICAM-1", "setting": "BENo, 1.00E2 nM", "value": -0.086}, {"measurement": "CD87/uPAR", "setting": "BENo, 1.00E2 nM", "value": 0.074}, {"measurement": "CXCL8/IL-8", "setting": "BENo, 1.00E2 nM", "value": 0.050}, {"measurement": "CXCL9/MIG", "setting": "BENo, 1.00E2 nM", "value": 0.027}, {"measurement": "CXCL10/IP-10", "setting": "BENo, 1.00E2 nM", "value": 0.029}, {"measurement": "CXCL11/I-TAC", "setting": "BENo, 1.00E2 nM", "value": 0.038}, {"measurement": "EGFR", "setting": "BENo, 1.00E2 nM", "value": -0.028}, {"measurement": "HLA-DR", "setting": "BENo, 1.00E2 nM", "value": 0.002}, {"measurement": "IL-1alpha", "setting": "BENo, 1.00E2 nM", "value": 0.024}, {"measurement": "Keratin 8/18", "setting": "BENo, 1.00E2 nM", "value": 0.019}, {"measurement": "MMP-1", "setting": "BENo, 1.00E2 nM", "value": -0.044}, {"measurement": "MMP-9", "setting": "BENo, 1.00E2 nM", "value": -0.012}, {"measurement": "PAI-I", "setting": "BENo, 1.00E2 nM", "value": -0.079}, {"measurement": "SRB", "setting": "BENo, 1.00E2 nM", "value": -0.00126}, {"measurement": "tPA", "setting": "BENo, 1.00E2 nM", "value": -0.018}, {"measurement": "uPA", "setting": "BENo, 1.00E2 nM", "value": 0.039}, {"measurement": "CCL26/Eotaxin-3", "setting": "BENo, 1.00E3 nM", "value": 0.016}, {"measurement": "CD54/ICAM-1", "setting": "BENo, 1.00E3 nM", "value": -0.027}, {"measurement": "CD87/uPAR", "setting": "BENo, 1.00E3 nM", "value": 0.042}, {"measurement": "CXCL8/IL-8", "setting": "BENo, 1.00E3 nM", "value": -0.000244}, {"measurement": "CXCL9/MIG", "setting": "BENo, 1.00E3 nM", "value": 0.034}, {"measurement": "CXCL10/IP-10", "setting": "BENo, 1.00E3 nM", "value": 0.016}, {"measurement": "CXCL11/I-TAC", "setting": "BENo, 1.00E3 nM", "value": 0.033}, {"measurement": "EGFR", "setting": "BENo, 1.00E3 nM", "value": 0.028}, {"measurement": "HLA-DR", "setting": "BENo, 1.00E3 nM", "value": 0.049}, {"measurement": "IL-1alpha", "setting": "BENo, 1.00E3 nM", "value": 0.018}, {"measurement": "Keratin 8/18", "setting": "BENo, 1.00E3 nM", "value": 0.022}, {"measurement": "MMP-1", "setting": "BENo, 1.00E3 nM", "value": -0.000325}, {"measurement": "MMP-9", "setting": "BENo, 1.00E3 nM", "value": -0.016}, {"measurement": "PAI-I", "setting": "BENo, 1.00E3 nM", "value": -0.078}]}
